According to patent US7880007B2, “Bicyclic substituted phenyl piperidine modulators of muscarinic receptors” (Vertex Pharmaceuticals Incorporated, priority 2004, dated 2011):

Tests used:
Format in all cases: cell-based
M2 muscarinic receptor = target: T1, M2 muscarinic receptor (Homo sapiens, UniProt P08172); assay: Functional mobilization of intracellular calcium (FLIPR), M2-CHO cells; settings: for M2 Activity: M2-CHO cells, calcium mobilization (FLIPR)
T1 construct: expressed in transfected cells; host or cells: CHO (M2-CHO)
T1 sequence (P08172 1-466): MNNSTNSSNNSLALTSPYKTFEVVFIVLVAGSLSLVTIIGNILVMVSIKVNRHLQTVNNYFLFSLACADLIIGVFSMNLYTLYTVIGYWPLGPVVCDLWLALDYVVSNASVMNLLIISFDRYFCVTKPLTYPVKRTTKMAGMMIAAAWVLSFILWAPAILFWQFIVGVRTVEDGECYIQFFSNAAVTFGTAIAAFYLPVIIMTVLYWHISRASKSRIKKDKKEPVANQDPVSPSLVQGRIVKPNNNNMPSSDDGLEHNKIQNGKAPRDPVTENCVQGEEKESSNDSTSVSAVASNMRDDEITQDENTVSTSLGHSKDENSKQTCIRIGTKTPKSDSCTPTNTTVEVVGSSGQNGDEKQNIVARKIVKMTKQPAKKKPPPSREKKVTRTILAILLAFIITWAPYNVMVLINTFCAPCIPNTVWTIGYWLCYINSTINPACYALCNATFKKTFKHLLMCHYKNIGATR
How it was run: (§1)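 FLIPR fluorescence (ex 488, em 540 nm) recorded 60 sec after compound addition to dye-loaded CHO cells. Agonist mode: compound alone. Antagonist mode: 15 min compound pre-incubation, then carbachol at EC80, or co-application. Efficacy expressed as % of maximal carbachol response.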

M4 muscarinic receptor = target: T2, M4 muscarinic receptor (Homo sapiens, UniProt P08173); assay: Functional mobilization of intracellular calcium (FLIPR), M4-CHO cells; settings: for M4 Activity: M4-CHO cells, calcium mobilization (FLIPR)
T2 construct: expressed in transfected cells; host or cells: CHO (M4-CHO)
T2 sequence (P08173 1-479): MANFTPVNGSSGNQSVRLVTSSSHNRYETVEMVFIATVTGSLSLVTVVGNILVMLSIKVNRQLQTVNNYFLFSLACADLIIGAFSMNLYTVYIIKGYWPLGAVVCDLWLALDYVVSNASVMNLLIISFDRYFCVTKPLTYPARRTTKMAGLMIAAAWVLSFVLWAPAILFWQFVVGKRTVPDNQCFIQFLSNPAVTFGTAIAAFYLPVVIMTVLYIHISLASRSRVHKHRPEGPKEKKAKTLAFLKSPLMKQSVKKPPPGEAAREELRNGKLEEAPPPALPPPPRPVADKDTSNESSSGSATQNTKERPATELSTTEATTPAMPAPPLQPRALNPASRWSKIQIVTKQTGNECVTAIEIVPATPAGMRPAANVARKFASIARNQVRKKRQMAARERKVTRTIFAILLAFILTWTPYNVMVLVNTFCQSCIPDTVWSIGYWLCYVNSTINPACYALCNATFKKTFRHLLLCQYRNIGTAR
How it was run: as §1

M1 muscarinic receptor = target: T3, M1 muscarinic receptor (Homo sapiens, UniProt P11229); assay: Functional mobilization of intracellular calcium (FLIPR), M1-CHO cells; settings: for M1 Activity: M1-CHO cells, calcium mobilization (FLIPR)
T3 construct: expressed in transfected cells; host or cells: CHO (M1-CHO)
T3 sequence (P11229 1-460): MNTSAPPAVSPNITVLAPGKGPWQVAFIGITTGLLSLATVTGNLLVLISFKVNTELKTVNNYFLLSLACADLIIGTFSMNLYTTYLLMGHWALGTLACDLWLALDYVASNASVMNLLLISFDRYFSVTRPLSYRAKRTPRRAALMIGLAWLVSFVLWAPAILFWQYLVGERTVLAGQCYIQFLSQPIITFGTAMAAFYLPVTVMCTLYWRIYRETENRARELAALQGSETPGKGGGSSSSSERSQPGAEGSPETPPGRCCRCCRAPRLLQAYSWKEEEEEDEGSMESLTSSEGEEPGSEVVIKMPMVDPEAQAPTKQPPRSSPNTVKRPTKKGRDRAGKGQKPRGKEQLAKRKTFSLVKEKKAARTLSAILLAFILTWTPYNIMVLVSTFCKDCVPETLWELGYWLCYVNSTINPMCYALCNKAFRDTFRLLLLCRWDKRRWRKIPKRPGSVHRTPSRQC
How it was run: as §1

M3 muscarinic receptor = target: T4, M3 muscarinic receptor (Homo sapiens, UniProt P20309); assay: Functional mobilization of intracellular calcium (FLIPR), M3-CHO cells; settings: for M3 Activity: M3-CHO cells, calcium mobilization (FLIPR)
T4 construct: expressed in transfected cells; host or cells: CHO (M3-CHO)
How it was run: as §1

[1] = 100% efficacy = maximum response obtained with the Carbachol control
[2] = 100% efficacy is the maximum response obtained with the Carbachol control

T4 sequence (P20309 whole entry): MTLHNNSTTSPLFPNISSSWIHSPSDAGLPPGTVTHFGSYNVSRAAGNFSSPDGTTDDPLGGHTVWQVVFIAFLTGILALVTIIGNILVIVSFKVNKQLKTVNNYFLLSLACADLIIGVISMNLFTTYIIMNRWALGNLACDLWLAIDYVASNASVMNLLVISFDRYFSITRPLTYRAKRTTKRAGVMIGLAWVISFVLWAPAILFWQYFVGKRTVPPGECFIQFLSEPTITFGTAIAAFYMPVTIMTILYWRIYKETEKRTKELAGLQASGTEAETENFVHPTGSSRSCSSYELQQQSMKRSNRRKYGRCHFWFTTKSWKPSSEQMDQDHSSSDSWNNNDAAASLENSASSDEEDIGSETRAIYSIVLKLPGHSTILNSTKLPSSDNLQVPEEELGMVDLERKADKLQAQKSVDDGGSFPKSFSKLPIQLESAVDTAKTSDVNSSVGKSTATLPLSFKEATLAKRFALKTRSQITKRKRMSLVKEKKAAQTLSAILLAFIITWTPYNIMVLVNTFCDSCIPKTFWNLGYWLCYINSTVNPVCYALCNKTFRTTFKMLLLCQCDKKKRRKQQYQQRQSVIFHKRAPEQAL

Emax (M2 muscarinic receptor; [1])	Emax (M4 muscarinic receptor; [1])	Emax (M1 muscarinic receptor; [1])	Emax (M3 muscarinic receptor; [1])	Emax (M2 muscarinic receptor; [2])	Emax (M4 muscarinic receptor; [2])	Emax (M1 muscarinic receptor; [2])	Emax (M3 muscarinic receptor; [2])	Structure (SMILES)	M2 Activity (M2 muscarinic receptor)	M4 Activity (M4 muscarinic receptor)	M1 Activity (M1 muscarinic receptor)	M3 Activity (M3 muscarinic receptor)	M2 Efficacy (M2 muscarinic receptor; [1])	M4 Efficacy (M4 muscarinic receptor; [1])	M1 Efficacy (M1 muscarinic receptor; [1])	M3 Efficacy (M3 muscarinic receptor; [1])
25 to 100%	25 to 100%	25 to 100%						Cc1ccccc1C1CCN(CC2CC3C=CC2C3)CC1 (centres unmarked) [Compound 46]	+ (activity was measured to be greater than 5.0 μM)	+++ (activity was measured to be less than 1.0 μM)	++ (activity was measured to be from 1.0 μM to 5.0 μM)	+ (activity was measured to be greater than 5.0 μM)				
25 to 100%	25 to 100%	25 to 100%	< 25%					COc1ccc(F)cc1C1CCN(C[C@H]2C[C@H]3C=C[C@H]2C3)CC1 [Compound 18]	+++ (activity was measured to be less than 1.0 μM)	+++ (activity was measured to be less than 1.0 μM)	+++ (activity was measured to be less than 1.0 μM)	+ (activity was measured to be greater than 5.0 μM)				
25 to 100%	> 100%	25 to 100%	25 to 100%					CCOC(=O)N1CCC(N2CCC(c3ccccc3OC)CC2)CC1 [Compound 211]	+++ (activity was measured to be less than 1.0 μM)	+++ (activity was measured to be less than 1.0 μM)	+++ (activity was measured to be less than 1.0 μM)	+ (activity was measured to be greater than 5.0 μM)				
< 25%	< 25%	< 25%	< 25%					CNC(=O)c1ccc(-c2ccc(OC)c(C3CCN(C4CCOCC4)CC3)c2)cc1 [Compound 285]	+ (activity was measured to be greater than 5.0 μM)	+ (activity was measured to be greater than 5.0 μM)	+ (activity was measured to be greater than 5.0 μM)	+ (activity was measured to be greater than 5.0 μM)				
25 to 100%	25 to 100%	25 to 100%	< 25%					CCOC(=O)N1CCC(CN2CCC(c3cc(C(F)(F)F)ccc3C)CC2)CC1 [Compound 94]	+++ (activity was measured to be less than 1.0 μM)	+++ (activity was measured to be less than 1.0 μM)	+++ (activity was measured to be less than 1.0 μM)	++ (activity was measured to be from 1.0 μM to 5.0 μM)				
< 25%	25 to 100%	25 to 100%	< 25%					Cc1ccc(F)cc1C1CCN([C@H]2C[C@H]3CC[C@H]2C3)CC1 [Compound 212]	+ (activity was measured to be greater than 5.0 μM)	+++ (activity was measured to be less than 1.0 μM)	+ (activity was measured to be greater than 5.0 μM)	+ (activity was measured to be greater than 5.0 μM)				

More lines, now with the values behind:

Structure (SMILES)	Emax (M2 muscarinic receptor; [1])	Emax (M4 muscarinic receptor; [1])	Emax (M1 muscarinic receptor; [1])	Emax (M3 muscarinic receptor; [1])	Emax (M2 muscarinic receptor; [2])	Emax (M4 muscarinic receptor; [2])	Emax (M1 muscarinic receptor; [2])	Emax (M3 muscarinic receptor; [2])	M2 Activity (M2 muscarinic receptor)	M4 Activity (M4 muscarinic receptor)	M1 Activity (M1 muscarinic receptor)	M3 Activity (M3 muscarinic receptor)	M2 Efficacy (M2 muscarinic receptor; [1])	M4 Efficacy (M4 muscarinic receptor; [1])	M1 Efficacy (M1 muscarinic receptor; [1])	M3 Efficacy (M3 muscarinic receptor; [1])
COc1cccc(C(=O)COc2ccccc2C2CCN([C@H]3C[C@H]4CC[C@H]3C4)CC2)c1 [Compound 119]	25 to 100%	25 to 100%	25 to 100%	< 25%					+ (activity was measured to be greater than 5.0 μM)	++ (activity was measured to be from 1.0 μM to 5.0 μM)	+ (activity was measured to be greater than 5.0 μM)	+ (activity was measured to be greater than 5.0 μM)				
Cc1ccccc1C1CCN([C@H]2C[C@H]3CC[C@H]2C3)CC1 [Compound 93]									+ (activity was measured to be greater than 5.0 μM)	+++ (activity was measured to be less than 1.0 μM)	++ (activity was measured to be from 1.0 μM to 5.0 μM)	+ (activity was measured to be greater than 5.0 μM)	+ (efficacy was calculated to be less than 25%)	++ (efficacy was calculated to be from 100% to 25%)	++ (efficacy was calculated to be from 100% to 25%)	+ (efficacy was calculated to be less than 25%)
COc1ccc(-c2ccc(S(C)(=O)=O)cc2)cc1C1CCN(C2CCOCC2)CC1 [Compound 357]	< 25%	< 25%	< 25%	< 25%					+ (activity was measured to be greater than 5.0 μM)	+ (activity was measured to be greater than 5.0 μM)	+ (activity was measured to be greater than 5.0 μM)	+ (activity was measured to be greater than 5.0 μM)				
COc1ccc(Cl)cc1C1CCN(C2CCSCC2)CC1 [Compound 376]					< 25%	25 to 100%	25 to 100%	< 25%	+ (activity was measured to be greater than 5.0 μM)	+++ (activity was measured to be less than 1.0 μM)	++ (activity was measured to be from 1.0 μM to 5.0 μM)	+ (activity was measured to be greater than 5.0 μM)				
Clc1cccc(-c2ccccc2C2CCN([C@H]3C[C@H]4CC[C@H]3C4)CC2)c1 [Compound 395]					< 25%	25 to 100%	< 25%	< 25%	+ (activity was measured to be greater than 5.0 μM)	+ (activity was measured to be greater than 5.0 μM)	+ (activity was measured to be greater than 5.0 μM)	+ (activity was measured to be greater than 5.0 μM)				
N#Cc1ccc(C2CCN(C3CCOCC3)CC2)cc1 [Compound 415]					< 25%	25 to 100%	< 25%	< 25%	+ (activity was measured to be greater than 5.0 μM)	+ (activity was measured to be greater than 5.0 μM)	+ (activity was measured to be greater than 5.0 μM)	+ (activity was measured to be greater than 5.0 μM)				
COc1ccc(F)cc1C1(F)CCN(C[C@@H]2C[C@H]3C=C[C@H]2C3)CC1 [Compound 5]	25 to 100%	25 to 100%	25 to 100%	< 25%					+ (activity was measured to be greater than 5.0 μM)	+++ (activity was measured to be less than 1.0 μM)	+ (activity was measured to be greater than 5.0 μM)	+ (activity was measured to be greater than 5.0 μM)				
COc1ccc(Cl)cc1C1CCN(C2CC3CCC(C3)C2)CC1 (centres unmarked) [Compound 27]	25 to 100%	25 to 100%	25 to 100%	< 25%					++ (activity was measured to be from 1.0 μM to 5.0 μM)	+++ (activity was measured to be less than 1.0 μM)	++ (activity was measured to be from 1.0 μM to 5.0 μM)	+ (activity was measured to be greater than 5.0 μM)				
COc1ccccc1C1CCN(C2CC[C@@H](C)C2)CC1 (some centres unmarked) [Compound 210]	< 25%	25 to 100%	25 to 100%	< 25%					+ (activity was measured to be greater than 5.0 μM)	+++ (activity was measured to be less than 1.0 μM)	+ (activity was measured to be greater than 5.0 μM)	+ (activity was measured to be greater than 5.0 μM)				
